How the values were obtained:
[1] = tested on: guinea pig tracheal spiral preparations; experiment: Bronchodilation in vitro; guinea pig tracheal spiral preparations; type: cell-based; conditions: relaxation relative to total relaxation evoked by 10⁻³M isoprenaline
Description: (a) Bronchodilation in vitro; guinea pig tracheal spiral preparations.
Male guinea pigs (300-600g) were stunned by a blow to the head and bled from the carotid artery. The trachea was exposed, dissected free of connective tissue, and transferred to oxygenated krebs solution at 37°C. Next, spirals (2 per trachea) were prepared by cutting the whole trachea spirally along its longitudinal axis and then dividing this spiral lengthwise. Each preparation was mounted, using silk thread, in a 10ml organ bath filled with krebs solution at 37°C and bubbled with 5% CO₂ with O₂. The resting tension of the preparations was set at 2g and changes in muscle tension were monitored isometrically by means of a UFI (2oz) force and displacement transducer (Ormed Ltd) connected to a Linseis pen recorder. […] During this equilibration period the preparations were washed by upward displacement at 15 minute intervals and, if necessary, the resting tension was readjusted to 2g using a mechanical micromanipulator system.
Once a steady resting tension had been obtained, the preparations were dosed cumulatively with the test compound (10⁻⁸-2x10⁻⁵M), and finally a maximum relaxation achieved by addition of 10⁻³M isoprenaline. The fall in tension evoked by the test compound was expressed as a percentage of the total relaxation evoked in the presence of 10⁻³M isoprenaline. […]

[2] = tested on: Spontaneously hypertensive rats; experiment: Blood pressure lowering activity, tail cuff method; type: in vivo; conditions: dose 1 mg/kg, initial blood pressure 265 ± 8 mmHg, 6 rats
Description: Blood Pressure Lowering Activity
Systolic blood pressures were recorded by a modification of the tail cuff method described by I.M. Claxton, M.G. Palfreyman, R.H. Poyser, R.L. Whiting, European Journal of Pharmacology, 37, 179 (1976). A W+W BP recorder, model 8005 was used to display pulses.Prior to all measurements rats were placed in a heated environment (33.5 ± 0.5°C) before transfer to a restraining cage. Each determination of blood pressure was the mean of at least 6 readings. Spontaneously hypertensive rats (ages 12-18 weeks) with systolic blood pressures >180 mmHg were considered hypertensive.

In the case of CC1(C)Oc2ccc(C#N)cc2C(N2CCCC2=O)C1=O (centres unmarked) [Example 1, 6-Cyano-3,4-dihydro-2,2 dimethyl-4-(2-oxopyrrolidin-1-yl)-2H-1-benzopyran-3-one], the “Intrinsic Activity” value [1] is reported as 0.89, the “% Change in Systolic Blood Pressure” value ([2]; 1 h post dose) is reported as -27 ± 5 (6 rats) % and the “% Change in Systolic Blood Pressure” value ([2]; 2 h post dose) is reported as -24 ± 1 (6 rats) %. The “% Change in Systolic Blood Pressure” value ([2]; 4 h post dose) was -19 ± 6 (6 rats) % and the “% Change in Systolic Blood Pressure” value ([2]; 6 h post dose) was -25 ± 5 (6 rats) %.
